Read-outs that look alike come from different tables or passages of the source.
Experiments:
[1] = system: Adenovirus type 5; assay type: cell-based; details: examples using ginseng (Table 1); Vero-E6 cells, 100 μg/ml pretreatment 2 h, 50 pfu/well, 72 h; non-treated control = 100
[2] = system: Adenovirus type 5; details: examples using ginseng (Table 1); lung tissue of K18-ACE2 TG mice, oral, three days after infection; non-treated control = 100

| Structure (SMILES) | Relative virus titer Adenovirus type 5 [1] | Relative virus titer Adenovirus type 5 [2] |
| --- | --- | --- |
| C[C@@H]1C[C@H]2[C@@H]3CCC4=CC(=O)C=C[C@]4(C)[C@@]3(F)[C@@H](O)C[C@]2(C)[C@@]1(O)C(=O)CO [Comparative Example 4, Dexamethasone] | 102 ± 1.9 | 102 ± 1.9 |
| C[C@]12C=CC(=O)C=C1CC[C@@H]1[C@@H]2[C@@H](O)C[C@@]2(C)[C@H]1CC[C@]2(O)C(=O)CO [Comparative Example 6, Prednisolone] | 102 ± 1.9 | 102 ± 1.9 |
| C[C@]12CCC(=O)C=C1CC[C@@H]1[C@@H]2[C@@H](O)C[C@@]2(C)[C@H]1CC[C@]2(O)C(=O)CO [Comparative Example 5, Hydrocortisone] | 103 ± 1.9 | 101 ± 1.9 |
| C[C@]12C=CC(=O)C=C1CC[C@H]1[C@@H]3C[C@@H](O)[C@](O)(C(=O)CO)[C@@]3(C)C[C@H](O)[C@@]12F [Comparative Example 7, Triamcinolone] | 102 ± 1.9 | 101 ± 1.9 |
